Like-named read-outs stand apart in the source and are kept apart here.
Assays:
[1] = target: [F^517]σ^70-RNAP holoenzyme (E. coli RNAP holoenzyme labelled with fluorescein at σ^70 residue 517), wild-type RNAP (E. coli) (UniProt P0A8V2); assay: other fluorescence titration
E. coli D21f2tolC = assay: Resistance and cross-resistance levels, rpoB mutants from saturation mutagenesis (plasmid-borne), broth microdilution; assay type: cell-based, Escherichia coli
[2] = target: T1, E. coli RNAP holoenzyme ([F^517]σ^70-RNAP holoenzyme) (Escherichia coli, UniProt P0A8T7+P0A8V2); assay: Fluorescence-detected RNAP-Rif interaction assay; assay type: binding; details: for Kd: calculated as koff/kon
T1 construct: made in house
Protocol: RNAP-Rif interaction assays were performed as in [Feklistov et al. (2008)]. The assays monitored the quenching of the fluorescence emission of fluorescein incorporated into RNAP holoenzyme at σ^70 residue 517 (serving as a fluorescence-resonance-energy-transfer donor) by the naphthyl moiety of Rif (serving as a fluorescence-resonance-energy-transfer acceptor; [Knight et al., 2005]; [Feklistov et al., 2008]). Fluorescence measurements were performed using a QuantaMaster QM1 spectrofluorometer (PTI, Edison, NJ) (excitation wavelength = 480 nm; emission wavelength = 530 nm; and excitation and emission slit widths = 5 nm).
For determination of association kinetics, 720 μl 2 nM [F^517]σ^70-RNAP holoenzyme and 0-2 μM GE in 40 mM Tris–HCl, pH 8.0, 100 mM NaCl, 10 mM MgCl2, 1 mM DTT, 0.02% Tween-20, and 5% glycerol was incubated 15 min at 24°C and then mixed with 30 μl 0.01–0.5 μM Rif in the same buffer at 24°C in a cuvette chamber with a mixing dead time ∼0.5 s, and fluorescence emission intensities were monitored for 30 min at 24°C. On-rates for RNAP-Rif interaction, kon, were calculated by fitting data to: I=(I0−I∞)exp(−kobst)+I∞ where kobs is the observed association rate constant at a specified Rif concentration, I is the fluorescence emission intensity at time t, Io is the fluorescence emission intensity at t = 0, and I∞ is the fluorescence emission intensity at t = ∞; followed by fitting the Rif-concentration-dependence of kobs to: kobs=kon[Rif]+koff where koff is ≥0 but is otherwise unconstrained.
Off-rates for RNAP-Rif interaction, koff, were calculated as: I=I0+(I∞−I0)[1−exp(−kofft)] where I is the fluorescence emission intensity at time t, Io is the fluorescence intensity at t = 0, and I∞ is the fluorescence intensity at t = ∞.
Equilibrium dissociation constants for RNAP-Rif interaction, Kd, were calculated as koff/kon.
The equilibrium dissociation constant for RNAP-GE interaction, Ki, was calculated from the association-kinetics data, by fitting the GE-concentration-dependence of I∞ to: I∞=(I∞,max[GE])/(Ki+[GE])

E. coli RNAP holoenzyme [3] = target: T2, E. coli RNAP holoenzyme (Escherichia coli, UniProt P0A8T7+P0A8V2); assay type: biochemical; details: 0.5 μM GE or 2.2 μM Rif; lacUV5(ICAP) promoter
E. coli RNAP holoenzyme [4] = target: T2, E. coli RNAP holoenzyme; assay type: biochemical; details: 0.5 μM GE or 2.2 μM Rif; ApA primer and UTP
E. coli RNAP holoenzyme [5] = target: T2, E. coli RNAP holoenzyme; assay type: biochemical; details: halted TEC containing 29 nt RNA product
GE23077 = assay: partial-competitive binding of GE and Rif: association kinetics for Rif (fluorescence intensity of fluorescein-labelled RNAP holoenzyme); details: 2000 nM GE
Escherichia coli RNAP = Escherichia coli RNAP (Escherichia coli, UniProt P0A8T7+P0A8V2); assay: biochemical; assay type: biochemical; details: wild-type RNAP; at the limit of detection of the assay
[Asp565]β-RNAP = [Asp565]β-RNAP (Escherichia coli, UniProt P0A8T7+P0A8V2, E565D); assay type: biochemical
[Asn516]β-RNAP = [Asn516]β-RNAP (Escherichia coli, UniProt P0A8T7+P0A8V2, D516N); assay: biochemical; assay type: biochemical
[6] = rpoB 565 Glu→Asp, GE^R mutant from saturation mutagenesis
[7] = rpoB 566 Gly→Arg, GE^R mutant from saturation mutagenesis
[8] = rpoB 566 Gly→Cys, GE^R mutant from saturation mutagenesis
[9] = rpoB 566 Gly→Ser, GE^R mutant from saturation mutagenesis
[10] = rpoB 684 Asn→Lys, GE^R mutant from saturation mutagenesis
[11] = rpoB 684 Asn→Thr, GE^R mutant from saturation mutagenesis
[12] = wild-type control of the saturation-mutagenesis mutants, E. coli D21f2tolC

Compound	resistance / cross-resistance level (MIC/MICwild-type) (E. coli D21f2tolC; [6])	resistance / cross-resistance level (MIC/MICwild-type) (E. coli D21f2tolC; [7])	resistance / cross-resistance level (MIC/MICwild-type) (E. coli D21f2tolC; [8])	resistance / cross-resistance level (MIC/MICwild-type) (E. coli D21f2tolC; [9])	resistance / cross-resistance level (MIC/MICwild-type) (E. coli D21f2tolC; [10])	resistance / cross-resistance level (MIC/MICwild-type) (E. coli D21f2tolC; [11])	MICwild-type (E. coli D21f2tolC; [12]) [µg/mL]	also measured
GE23077 (peptide)								Ki [1]: 0.006 µM
ONC(=Nc1ccccc1)c1cccc(C(F)(F)F)c1 [CBR703]	1	1	1	1	1	2	6.25	
CO[C@H]1/C=C/O[C@@]2(C)Oc3c(C)c(O)c4c(O)c(c(/C=N/N5CCN(C)CC5)c(O)c4c3C2=O)NC(=O)/C(C)=C\C=C\[C@H](C)[C@H](O)[C@@H](C)[C@@H](O)[C@@H](C)[C@H](OC(C)=O)[C@@H]1C [Rif, Rifampin]								cross-resistance of GE^R mutants to other RNAP inhibitors (E. coli D21f2tolC; GE^R mutants): do not exhibit cross-resistance; resistance / cross-resistance level (MIC/MICwild-type) (E. coli D21f2tolC; {}): 1; Kd ([2]; absence of GE): 0.0004 µM; Kd ([2]; presence of saturating GE (2000 nM)): 0.03 µM; koff ([2]; read-out: koff for Rif, 0 nM GE, Figure 6-figure supplement 1): 0.00019 s⁻¹; koff ([2]; read-out: koff for Rif, absence of GE, Figure 6C): 0.0002 s⁻¹; kon ([2]; read-out: kon for Rif, 0 nM GE, Figure 6-figure supplement 1 (condition assigned by comparison with Figure 6C)): 520000 M⁻¹ s⁻¹; kon ([2]; read-out: kon for Rif, absence of GE, Figure 6C): 500000 M⁻¹ s⁻¹; inhibition of formation of RNAP-promoter open complex (RPo) (E. coli RNAP holoenzyme [3]): does not inhibit formation of RPo; inhibition of first nucleotide addition, primer-dependent transcription initiation (E. coli RNAP holoenzyme [4]): does not generally inhibit the first nucleotide-addition step in transcription initiation; inhibition of nucleotide addition in transcription elongation, halted elongation complex (E. coli RNAP holoenzyme [5]): does not inhibit nucleotide addition in transcription elongation; MICwild-type: 0.2 µg/mL
[F^517]σ^70-RNAP holoenzyme (E. coli RNAP holoenzyme labelled with fluorescein at σ^70 residue 517), wild-type RNAP (from UniProt P0A8V2;P0A8T7;P00579) [Lys684]β								Ki (GE23077): > 2 µM
CO[C@H]1/C=C/O[C@@]2(C)Oc3c(C)c(O)c4c(O)c(c(NC(C)C(C)C(=O)NC[C@H]5NC(=O)CNC(=O)[C@H](O)CNC(=O)[C@@H]([C@@H](C)O)NC(=O)[C@H]([C@@H](O)[C@H](O)C(N)=O)NC(=O)[C@@H](C(C)C)NC(=O)[C@@H](CO)NC5=O)c(O)c4c3C2=O)NC(=O)/C(C)=C\C=C\[C@H](C)[C@H](O)[C@@H](C)[C@@H](O)[C@@H](C)[C@H](OC(C)=O)[C@@H]1C (stereo partly drawn) [RifaGE-3, {[α-descarboxy-Ama]GE}-NH-{RifSV}]								IC50 (Escherichia coli RNAP): ≤ 0.04 µM; fold more potent than GE in inhibition of GE^R RNAP ([Asp565]β-RNAP): > 2500 fold; fold more potent than RifSV in inhibition of Rif^R RNAP ([Asn516]β-RNAP): 50 fold; IC50 ([Asn516]β-RNAP; Rif-resistant RNAP [Asn516]β-RNAP, read-out: IC50): 0.2 µM
CCC/C(C)=C/C=C(\C)C(=O)c1c(O)cc([C@H](C)CC/C=C/NC(=O)OC)oc1=O (racemic) [Myx, (±)E,E-myxopyronin B]	1	1	1	1	1	1	0.098	
CNC(=O)[C@@H](C)[C@H]1C(=O)/C(=C(O)/C=C/C(C)=C/[C@@H](C)[C@H]2O[C@@]3(C)O[C@H](C=C[C@@]34CO4)[C@@H]2C)C(=O)N1[C@@H]1CC[C@H](O)[C@H](C)O1 [Stl, streptolydigin]								MICwild-type (E. coli D21f2tolC; {}): 0.78 µg/mL; resistance / cross-resistance level (MIC/MICwild-type) (E. coli D21f2tolC; {}): 1
Lipiarmycin [Lpm]	1	1	1	1	1	1	0.78	
[F^517]σ^70-RNAP holoenzyme (E. coli RNAP holoenzyme labelled with fluorescein at σ^70 residue 517), wild-type RNAP (from UniProt P0A8V2;P0A8T7;P00579) [Asp565]β								Ki (GE23077): > 2 µM
Sorangicin	1	1	1	1	1	1	1.56	
CO[C@H]1/C=C/O[C@@]2(C)Oc3c(C)c(O)c4c(O)c(cc(O)c4c3C2=O)NC(=O)/C(C)=C\C=C\[C@H](C)[C@H](O)[C@@H](C)[C@@H](O)[C@@H](C)[C@H](OC(C)=O)[C@@H]1C [RifSV, rifamycin SV]								IC50 ([Asn516]β-RNAP): 10 µM

Reference: paper PMC3994528, “GE23077 binds to the RNA polymerase ‘i’ and ‘i+1’ sites and prevents the binding of initiating nucleotides” (eLife, 2014)
